Laboratory results as given in patent US20210315840A1, “SOLID ORAL DOSAGE FORMS OF KETAMINE DERIVATIVES” (priority 2017, published 2021).

Experiments:
[1] = biological target: T1, CYP2B6 (Homo sapiens, UniProt P20813); experiment: CYP inhibition assay CYP2B6; type: in vitro ADME
T1 sequence (P20813 1-491): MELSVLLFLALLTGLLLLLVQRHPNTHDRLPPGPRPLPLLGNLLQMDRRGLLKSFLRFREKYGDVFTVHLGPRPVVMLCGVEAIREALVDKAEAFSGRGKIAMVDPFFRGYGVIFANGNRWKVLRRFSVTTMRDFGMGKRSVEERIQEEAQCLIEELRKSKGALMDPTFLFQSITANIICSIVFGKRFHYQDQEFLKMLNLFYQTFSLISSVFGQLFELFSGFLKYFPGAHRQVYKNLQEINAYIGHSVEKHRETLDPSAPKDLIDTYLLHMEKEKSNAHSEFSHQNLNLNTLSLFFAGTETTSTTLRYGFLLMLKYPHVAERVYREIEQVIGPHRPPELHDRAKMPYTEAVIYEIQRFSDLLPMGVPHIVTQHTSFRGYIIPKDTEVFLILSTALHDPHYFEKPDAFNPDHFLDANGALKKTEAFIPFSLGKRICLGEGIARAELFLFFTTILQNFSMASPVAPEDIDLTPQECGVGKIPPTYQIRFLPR
Excerpt: (§1) Cytochrome P450s (CYPs) are a family of enzymes that play a primary role in the metabolism of a wide variety of drugs. 2R,6R-hydroxynorketamine was investigated for its potential to inhibit the action of 7 key CYP enzymes using an inhibition assay measuring reduction in the formation of metabolites compared to control.

[2] = biological target: T2, 5-HT1A (Homo sapiens, UniProt P08908); experiment: Binding assay 5-HT1A
T2 sequence (P08908 1-422): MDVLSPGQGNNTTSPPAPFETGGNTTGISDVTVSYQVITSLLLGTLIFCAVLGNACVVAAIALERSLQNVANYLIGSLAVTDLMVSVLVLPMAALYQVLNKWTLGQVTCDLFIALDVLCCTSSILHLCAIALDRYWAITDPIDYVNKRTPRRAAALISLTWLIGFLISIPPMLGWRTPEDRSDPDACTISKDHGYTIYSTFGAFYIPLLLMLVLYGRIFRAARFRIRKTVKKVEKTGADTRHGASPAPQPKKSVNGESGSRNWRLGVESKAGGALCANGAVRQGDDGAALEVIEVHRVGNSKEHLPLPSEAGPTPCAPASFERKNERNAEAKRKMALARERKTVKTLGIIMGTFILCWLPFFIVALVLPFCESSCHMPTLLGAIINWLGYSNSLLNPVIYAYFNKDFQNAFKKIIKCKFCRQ
Excerpt: (§2) 2R,6R-hydroxynorketamine was investigated for binding to monoamine oxidases A and B, monoamine transporters, as well as a variety of 5HT receptors.

[3] = Oral bioavailability in vivo after oral gavage; settings: mice
[4] = tested on: cryopreserved hepatocytes; experiment: Hepatocyte stability assay, rat; settings: 3 μM
Protocol: Test compound (3 μM) was incubated with cryopreserved hepatocytes in suspension. Samples are removed at 6 time points over the course of 120 minutes and analysed by LC-MS/MS.

[5] = biological target: T3, CYP1A2 (Homo sapiens, UniProt P05177); experiment: CYP inhibition assay CYP1A2; type: in vitro ADME
T3 sequence (P05177 1-516): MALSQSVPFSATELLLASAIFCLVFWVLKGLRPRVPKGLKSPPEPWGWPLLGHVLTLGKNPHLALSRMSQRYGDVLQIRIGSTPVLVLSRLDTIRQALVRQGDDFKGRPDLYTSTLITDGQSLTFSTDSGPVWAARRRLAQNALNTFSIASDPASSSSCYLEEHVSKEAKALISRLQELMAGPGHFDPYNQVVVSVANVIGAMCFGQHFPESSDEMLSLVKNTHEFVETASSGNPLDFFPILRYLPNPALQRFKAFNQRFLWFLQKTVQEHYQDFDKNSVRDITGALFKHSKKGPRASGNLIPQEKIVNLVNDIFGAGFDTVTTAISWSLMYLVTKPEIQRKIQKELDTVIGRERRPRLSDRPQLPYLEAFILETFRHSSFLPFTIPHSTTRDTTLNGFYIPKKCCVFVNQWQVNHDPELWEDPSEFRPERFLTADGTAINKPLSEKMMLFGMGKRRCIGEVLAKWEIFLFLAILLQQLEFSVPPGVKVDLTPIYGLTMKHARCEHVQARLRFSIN
Excerpt: as §1

[6] = Metabolite profiling; type: in vitro ADME
[7] = biological target: 5-HT1B (Homo sapiens, UniProt P28222); experiment: Binding assay 5-HT1B
Excerpt: as §2

[8] = pKa by potentiometric (pH-metric) titration; type: physicochemical; settings: methanol-water co-solvent, Yasuda-Shedlovsky extrapolation
Protocol: The sample pKa was determined using the potentiometric (pH-metric) technique following attempts to determine pKa via UV spectroscopic techniques.
UV-metric: The sample was initially titrated in a fast-UV triple titration between pH 2.0-12.0 at concentrations of 31-19 μM, under aqueous conditions. No evidence of any sample ionisation within the investigated pH range was inferred from the spectroscopic data obtained, meaning that any ionisable groups were remote from chromophores. Therefore, the sample was analysed using the pH-metric method.
pH-metric: The sample was subsequently titrated using the potentiometric technique to determine the non-UV active pKas. A triple titration was carried out under methanol-water co-solvent conditions from pH 2.0-12.0 at concentrations of 0.9-0.6 mM (the methanol mixing ratio varied from 53.0 to 33.3% w/w).

[9] = biological target: MAO-B (Homo sapiens, UniProt P27338); experiment: Binding assay MAO-B
Excerpt: as §2

[10] = tested on: α-amino-3-hydroxy-5-methyl-4-isoxazolepropionic acid receptor (AMPAR)-mediated currents; experiment: In vitro electrophysiology, field excitatory postsynaptic potentials; settings: estimated
Protocol: The free (unbound) concentration of 2R,6R-hydroxynorketamine producing pharmacodynamics activity in the brain is estimated to be approximately 10 μM.

[11] = biological target: 5-HT2A (Homo sapiens, UniProt P28223); experiment: Binding assay 5-HT2A
Excerpt: as §2

Sequence of 5-HT1B (P28222 whole entry, species assumed): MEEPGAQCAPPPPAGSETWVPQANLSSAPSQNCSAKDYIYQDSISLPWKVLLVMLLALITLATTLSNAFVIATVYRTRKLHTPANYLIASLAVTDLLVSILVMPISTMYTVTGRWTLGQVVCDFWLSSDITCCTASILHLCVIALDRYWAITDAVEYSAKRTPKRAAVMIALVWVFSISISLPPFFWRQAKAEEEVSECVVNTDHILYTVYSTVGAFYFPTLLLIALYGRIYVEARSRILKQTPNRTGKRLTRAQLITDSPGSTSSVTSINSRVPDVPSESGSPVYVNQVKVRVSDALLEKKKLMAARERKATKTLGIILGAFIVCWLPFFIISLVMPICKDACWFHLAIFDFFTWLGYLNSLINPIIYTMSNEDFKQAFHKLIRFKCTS
Sequence of 5-HT2A (P28223 whole entry): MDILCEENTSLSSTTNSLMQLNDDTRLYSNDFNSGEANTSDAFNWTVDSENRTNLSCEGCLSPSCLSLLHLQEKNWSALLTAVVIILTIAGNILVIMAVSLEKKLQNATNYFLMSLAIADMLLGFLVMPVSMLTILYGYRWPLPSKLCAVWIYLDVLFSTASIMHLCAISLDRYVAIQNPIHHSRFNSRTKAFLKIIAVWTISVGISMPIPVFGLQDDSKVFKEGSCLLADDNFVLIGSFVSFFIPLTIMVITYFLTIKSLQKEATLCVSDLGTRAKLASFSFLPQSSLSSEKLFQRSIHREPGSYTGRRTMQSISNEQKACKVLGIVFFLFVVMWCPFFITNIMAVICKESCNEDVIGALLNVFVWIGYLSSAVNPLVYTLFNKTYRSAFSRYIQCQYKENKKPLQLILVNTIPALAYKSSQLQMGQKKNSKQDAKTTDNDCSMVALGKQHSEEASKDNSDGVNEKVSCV
Sequence of MAO-B (P27338 whole entry, species assumed): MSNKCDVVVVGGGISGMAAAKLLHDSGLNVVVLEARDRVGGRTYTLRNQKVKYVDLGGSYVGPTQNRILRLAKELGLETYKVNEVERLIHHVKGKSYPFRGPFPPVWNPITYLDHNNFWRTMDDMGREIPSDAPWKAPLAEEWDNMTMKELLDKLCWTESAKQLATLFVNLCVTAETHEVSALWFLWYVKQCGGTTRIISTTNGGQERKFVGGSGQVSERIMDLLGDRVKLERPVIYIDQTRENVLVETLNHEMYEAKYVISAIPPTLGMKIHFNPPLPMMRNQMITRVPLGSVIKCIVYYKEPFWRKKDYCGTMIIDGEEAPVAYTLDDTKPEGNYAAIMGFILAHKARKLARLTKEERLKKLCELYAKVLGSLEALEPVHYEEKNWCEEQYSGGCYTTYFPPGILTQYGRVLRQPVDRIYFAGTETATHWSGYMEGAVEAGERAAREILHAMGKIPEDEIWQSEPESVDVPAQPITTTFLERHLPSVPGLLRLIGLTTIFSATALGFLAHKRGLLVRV

N[C@@]1(c2ccccc2Cl)CCC[C@@H](O)C1=O [2R,6R-hydroxynorketamine, 2R,6R-2-(2-Chlorophenyl)-2-(amino)-6-hydroxycyclohexanone]
inhibition of CYP2B6 (in words) [1]: did not inhibit
% Inhibition ([1]; 0.4 μM): 6.03%
% Inhibition ([1]; 1 μM): 10.1%
% Inhibition ([1]; 4 μM): 10.6%
% Inhibition ([1]; 10 μM): 14.4%
% Inhibition ([1]; 40 μM): 14.8%
% Inhibition ([1]; 100 μM): 16.7%
% Inhibition of Control Specific Binding [2]: 5%
% of Control Specific Binding [2]: 97.9%
binding to 5HT1A receptor subtype (in words) [2]: does not bind
oral bioavailability ([3]; high oral dose (>30 mg/kg)): good
oral bioavailability ([3]; low oral dose): poor
CLint [4]: 55.2 μL/min/10^6 cells
t1/2 [4]: 25.1 min
IC50 [5]: ~100 µM
% Inhibition ([5]; 0.4 μM): 7.55%
% Inhibition ([5]; 1 μM): 8.80%
% Inhibition ([5]; 4 μM): 11.7%
% Inhibition ([5]; 10 μM): 19.3%
% Inhibition ([5]; 40 μM): 24.8%
% Inhibition ([5]; 100 μM): 48.6%
metabolic route (in words) [6]: does not undergo phase I metabolism by CYP enzymes, but is glucuronidated
% Inhibition of Control Specific Binding [7]: −2%
% of Control Specific Binding [7]: 102.7%
binding to 5HT1B receptor subtype (in words) [7]: does not bind
pKa [8]: 6.51+/−0.02
% Inhibition of Control Specific Binding [9]: −1%
% of Control Specific Binding [9]: 100.4%
free (unbound) concentration producing pharmacodynamics activity in the brain, sufficient to increase fEPSPs [10]: approximately 10 μM
% Inhibition of Control Specific Binding [11]: 0%
% of Control Specific Binding [11]: 103.8%
binding to 5HT2A receptor subtype (in words) [11]: does not bind
